Data from patent US9758505B2, “3-(indol-3-yl)-pyridine derivatives, pharmaceutical compositions and methods for use” (ITEOS THERAPEUTICS, priority 2014, dated 2017).
Structures can show the parent of a compound that is named as a salt.

How the values were obtained:
human TDO2 [1] = target: T1, human TDO2 (Homo sapiens (Human), UniProt P48775); test: Assay for TDO2 enzymatic activity determination; assay type: biochemical; details: human recombinant TDO2, L-Trp 1 mM, kynurenine absorbance at 480 nm
Protocol: The compounds of formula I inhibit the enzymatic activity of human TDO2.
To measure the TDO2 activity, the procedure described in Dolusic et al. J. Med. Chem.; 2011, 54, […] was adapted: the reaction mixture contained (final concentrations) potassium phosphate buffer (50 mM, pH 7.5), ascorbic acid (0.25 M), methylene blue (0.125 μM), catalase (40 units/mL, from bovine liver, Sigma), and human recombinant TDO2 enzyme (prepared as described in Dolusic et al. J. Med. Chem.; 2011, 54, 5320-5334; 0.9 μg) without or with the compounds of the present invention at the indicated concentrations (total volume 112.5 μL). The reaction was initiated by the addition of 37.5 μL of L-Trp (final concentration 1 mM) at room temperature. The reaction was conducted at room temperature during one hour and stopped by the addition of 30 μL of 30% (w/v) trichloroacetic acid.
To convert N-formylkynurenine into kynurenine, the reaction mixture was incubated at 65° C. for 30 min. Then 150 μL of the reaction mixture was mixed with 120 μL of 2.5% (w/v) 4-(dimethylamino)-benzaldehyde in acetic acid and incubated for 5 min at room temperature. Kynurenine concentrations were determined by measuring the absorbance at 480 nm. A standard curve was made with pure kynurenine. The TDO activity was measured as described above using ten serial concentrations of the compounds of the present invention. Data were fitted using the Prism™ software (GraphPad Software, Inc.) using standard software configurations.

human TDO2 [2] = target: T1, human TDO2; test: Cellular assay for TDO2 activity, hTDO2-overexpressing P815 cells; assay type: cell-based; details: murine mastocytoma P815 cells overexpressing hTDO2, overnight incubation, kynurenine in supernatant
Protocol: The compounds of Formula I inhibit the activity of human TDO2 in cells.
The assay (adapted from Pilotte L et al., Proc Natl Acad Sci USA, 2012, 109(7), 2497-502) was performed in 96-well flat bottom plates seeded with murine mastocytoma P815 cells overexpressing hTDO2 (prepared as described in Pilotte et al., PNAS, 2012, 109(7), 2497-2502), at a concentration of 5×10^4 cells/well in a final volume of 200 μL. To determine TDO or IDO activity, the cells were incubated overnight at 37° C. at 5% CO2 in IMDM (Invitrogen) supplemented with 2% FBS and 2% penicillin/streptomycin in the presence of the compounds of the present invention, at different concentrations. The cells may be obtained from the American Type Cuylture Collecion [ATCC® TIB-64™ or commercially, e.g., from Sigma-Aldrich or Life Technologies.]
(§1) The plates were then centrifuged 5 min at 1000 rpm, and 100 μL of the supernatant were collected in a conical plate, 30 uL of TCA 30% were added and a further centrifugated at 3000×g for 10 minutes. 100 μL of the supernatant were collected in a flat bottomed plate and 100 μL of 2% (w/v) 4-(dimethylamino)-benzaldehyde in acetic acid and incubated for 5 min at room temperature. Kynurenine concentrations were determined by measuring the absorbance at 480 nm. A standard curve was made with pure kynurenine. The TDO activity was measured as described above using ten serial concentrations of the compounds of the present invention. Data were fitted using the Prism™ software (GraphPad Software, Inc.) using standard software configurations.

human TDO2 [3] = target: T1, human TDO2; test: Cellular assay for TDO2 activity, A172 cells naturally expressing hTDO2; assay type: cell-based; details: human glioblastoma A172 cells, overnight incubation, kynurenine in supernatant
Protocol: A172 is a cell line derived from human brain glioblastoma cells.
To determine TDO, the cells were incubated overnight at 37° C. at 5% CO2 in IMDM (Invitrogen) supplemented with 2% FBS and 2% penicillin/streptomycin in the presence of the compounds of the present invention, at different concentrations.
as §1

T1 sequence (P48775 whole entry): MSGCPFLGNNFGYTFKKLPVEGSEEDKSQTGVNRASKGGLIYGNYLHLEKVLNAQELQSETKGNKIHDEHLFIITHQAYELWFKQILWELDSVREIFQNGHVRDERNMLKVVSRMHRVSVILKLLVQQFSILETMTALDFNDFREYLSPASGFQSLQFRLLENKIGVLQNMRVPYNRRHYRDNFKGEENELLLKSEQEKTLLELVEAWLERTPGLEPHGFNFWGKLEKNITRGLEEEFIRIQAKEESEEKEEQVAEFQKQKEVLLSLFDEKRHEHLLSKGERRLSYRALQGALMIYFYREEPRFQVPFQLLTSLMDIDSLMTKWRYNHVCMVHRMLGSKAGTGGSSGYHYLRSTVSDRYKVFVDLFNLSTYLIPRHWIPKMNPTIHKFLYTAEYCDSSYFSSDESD

IC50 (human TDO2 [1])	IC50 (human TDO2 [2])	IC50 (human TDO2 [3])	SMILES
	350 nM		NCC(=O)Nc1ccc(-c2c[nH]c3cc(F)ccc23)cn1 [Example 39, 2-amino-N-(5-(6-fluoro-1H-indol-3-yl)pyridin-2-yl)acetamide]
11000 nM			[O-][n+]1cccc(-c2c[nH]c3cc(F)ccc23)c1 [Example 49, 3-(6-fluoro-1H-indol-3-yl)pyridine 1-oxide]
	1000 nM		CC(=O)NCCNc1ccc(-c2c[nH]c3cc(F)ccc23)cn1 [Example 50, N-(2-((5-(6-fluoro-1H-indol-3-yl)pyridin-2-yl)amino)ethyl)acetamide]
	850 nM		NCC(=O)NCCNc1ccc(-c2c[nH]c3cc(F)ccc23)cn1 [Example 51, 2-amino-N-(2-((5-(6-fluoro-1H-indol-3-yl)pyridin-2-yl)amino)ethyl)acetamide]
	120 nM		O=C(Nc1ccc(-c2c[nH]c3cc(F)ccc23)cn1)C1CC1 [Example 52, N-(5-(6-fluoro-1H-indol-3-yl)pyridin-2-yl)cyclopropanecarboxamide]
	160 nM	420 nM	CN(c1ccc(-c2c[nH]c3cc(F)ccc23)cn1)S(C)(=O)=O [Example 54, N-(5-(6-fluoro-1H-indol-3-yl)pyridin-2-yl)-N-methylmethanesulfonamide]
	290 nM	990 nM	NCCS(=O)(=O)NC1CCN(c2ccc(-c3c[nH]c4cc(F)ccc34)cn2)CC1 [Example 55, 2-amino-N-(1-(5-(6-fluoro-1H-indol-3-yl)pyridin-2-yl)piperidin-4-yl)ethanesulfonamide]
	240 nM	640 nM	CN(C)CCS(=O)(=O)NC1CCN(c2ccc(-c3c[nH]c4cc(F)ccc34)cn2)CC1 [Example 56, 2-(dimethylamino)-N-(1-(5-(6-fluoro-1H-indol-3-yl)pyridin-2-yl)piperidin-4-yl)ethanesulfonamide]
	170 nM	990 nM	CS(=O)(=O)N1CCC(C(=O)Nc2ccc(-c3c[nH]c4cc(F)ccc34)cn2)CC1 [Example 61, N-(5-(6-fluoro-1H-indol-3-yl)pyridin-2-yl)-1-(methylsulfonyl)piperidine-4-carboxamide]
	260 nM	370 nM	O=c1ccc(-c2c[nH]c3cc(F)ccc23)c[nH]1 [Example 69, 5-(6-fluoro-1H-indol-3-yl)pyridin-2(1H)-one]
16000 nM		490 nM	O=C1NCCN1c1ccc(-c2c[nH]c3cc(F)ccc23)cn1 [Example 78, 1-(5-(6-fluoro-1H-indol-3-yl)pyridin-2-yl)imidazolidin-2-one]
		360 nM	CN(CCC(N)=O)S(=O)(=O)c1ccc(-c2c[nH]c3cc(F)ccc23)cn1 [Example 101, 3-(5-(6-fluoro-1H-indol-3-yl)-N-methylpyridine-2-sulfonamido)propanamide]

Second part, the compound before the results:

SMILES	IC50 (human TDO2 [1])	IC50 (human TDO2 [2])	IC50 (human TDO2 [3])
Cc1ccc(-c2c[nH]c3cc(F)ccc23)cn1 [Example 1, 6-fluoro-3-(6-methylpyridin-3-yl)-1H-indole]	370 nM	180 nM	
Fc1ccc2c(-c3ccc(OC4CCNCC4)nc3)c[nH]c2c1 [Example 2, 6-fluoro-3-(6-(piperidin-4-yloxy)pyridin-3-yl)-1H-indole]	560 nM		
CN1CCC(Oc2ccc(-c3c[nH]c4cc(F)ccc34)cn2)CC1 [Example 3, 6-fluoro-3-(6-(1-methylpiperidin-4-yloxy)pyridin-3-yl)-1H-indole]	1200 nM		
CN(C)CCOc1ccc(-c2c[nH]c3cc(F)ccc23)cn1 [Example 4, 2-(5-(6-fluoro-1H-indol-3-yl)pyridin-2-yloxy)-N,N-dimethylethanamine]	39000 nM	680 nM	
COc1ccc(-c2c[nH]c3cc(F)ccc23)cn1 [Example 5, 6-fluoro-3-(6-methoxypyridin-3-yl)-1H-indole]	730 nM	120 nM	
CS(=O)(=O)N1CCC(Oc2ccc(-c3c[nH]c4cc(F)ccc34)cn2)CC1 [Example 6, 6-fluoro-3-(6-(1-(methylsulfonyl)piperidin-4-yloxy)pyridin-3-yl)-1H-indole]	1300 nM		
CN(C)c1ccc(-c2c[nH]c3cc(F)ccc23)cn1 [Example 7, 5-(6-fluoro-1H-indol-3-yl)-N,N-dimethylpyridin-2-amine]	380 nM	320 nM	
CC(=O)N(C)c1ccc(-c2c[nH]c3cc(F)ccc23)cn1 [Example 8, N-(5-(6-fluoro-1H-indol-3-yl)pyridin-2-yl)-N-methylacetamide]		490 nM	
Fc1ccc2c(-c3ccc(N4CCOCC4)nc3)c[nH]c2c1 [Example 9, 4-(5-(6-fluoro-1H-indol-3-yl)pyridin-2-yl)morpholine]	540 nM	210 nM	
CN1CCN(c2ccc(-c3c[nH]c4cc(F)ccc34)cn2)CC1 [Example 10, 6-fluoro-3-(6-(4-methylpiperazin-1-yl)pyridin-3-yl)-1H-indole]	720 nM	130 nM	
NCC(=O)N1CCN(c2ccc(-c3c[nH]c4cc(F)ccc34)cn2)CC1 [Example 11, 2-amino-1-(4-(5-(6-fluoro-1H-indol-3-yl)pyridin-2-yl)piperazin-1-yl)ethanone]	650 nM	650 nM	
NCC(=O)NC1CCN(c2ccc(-c3c[nH]c4cc(F)ccc34)cn2)CC1 [Example 13, 2-amino-N-(1-(5-(6-fluoro-1H-indol-3-yl)pyridin-2-yl)piperidin-4-yl)acetamide]	1700 nM	550 nM	
Nc1ccc(-c2c[nH]c3cc(F)ccc23)cn1 [Example 15, 5-(6-fluoro-1H-indol-3-yl)pyridin-2-amine]	1100 nM	130 nM	
Nc1ccc(-c2c[nH]c3cc(F)c(F)cc23)cn1 [Example 16, 5-(5,6-difluoro-1H-indol-3-yl)pyridin-2-amine]	1600 nM		
CCN1CCC(Nc2ccc(-c3c[nH]c4cc(F)ccc34)cn2)CC1 [Example 18, N-(1-ethylpiperidin-4-yl)-5-(6-fluoro-1H-indol-3-yl)pyridin-2-amine]	4800 nM		
CS(=O)(=O)N1CCC(Nc2ccc(-c3c[nH]c4cc(F)ccc34)cn2)CC1 [Example 19, 5-(6-fluoro-1H-indol-3-yl)-N-(1-(methylsulfonyl)piperidin-4-yl)pyridin-2-amine]	650 nM		
CC(=O)NCCCNc1ccc(-c2c[nH]c3cc(F)ccc23)cn1 [Example 20, N-(3-(5-(6-fluoro-1H-indol-3-yl)pyridin-2-ylamino)propyl)acetamide]	870 nM		
NS(=O)(=O)CCCNc1ccc(-c2c[nH]c3cc(F)ccc23)cn1 [Example 23, 3-((5-(6-fluoro-1H-indol-3-yl)pyridin-2-yl)amino)propane-1-sulfonamide]		430 nM	490 nM
CS(=O)(=O)NCCNc1ccc(-c2c[nH]c3cc(F)ccc23)cn1 [Example 26, N-(2-(5-(6-fluoro-1H-indol-3-yl)pyridin-2-ylamino)ethyl)methanesulfonamide hydrochloride]	710 nM		
NS(=O)(=O)CCNc1ccc(-c2c[nH]c3cc(F)ccc23)cn1 [Example 29, 2-((5-(6-fluoro-1H-indol-3-yl)pyridin-2-yl)amino)ethanesulfonamide]		240 nM	
O=C(Nc1ccc(-c2c[nH]c3cc(F)ccc23)cn1)C1CCNCC1 [Example 35, N-(5-(6-fluoro-1H-indol-3-yl)pyridin-2-yl)piperidine-4-carboxamide]		250 nM	530 nM
C[C@H](N)C(=O)Nc1ccc(-c2c[nH]c3cc(F)ccc23)cn1 [Example 37, (S)-2-amino-N-(5-(6-fluoro-1H-indol-3-yl)pyridin-2-yl)propanamide]		450 nM	
